This note sets out measurements from patent publication US20250152605A1, “METHOD AND DRUG FOR TREATING NEURONAL CEROID LIPOFUSCINOSIS” (priority 2021, published 2025).

The subject of assay [1] is CLN3^Δex7/8 human neurons. The assay can be described thus: Lysotracker staining of CLN3^Δex7/8 human neurons, flow cytometry. The class given is cell-based. Here is the method: In analyzing the mean fluorescence intensity of neural stem cells and neuronal staining or single cell establishment of NRK cells, flow cytometry was used: the cell medium was aspirated off, after wash with dPBS once, the digestive enzyme corresponding to the cell type was added to digest into single cells; the supernatant was removed by centrifugation, and the cells were resuspended with 1 mL of fresh medium; the cell suspension with filtered through 40 μm filter membrane and the single cell filtrate was collected; the single cell filtrate was transferred to a flow tube and analyzed or sorted using BD FACS Aria III; in the analysis, the fluorescence intensity of 1×10^4 cells for each sample was analyzed to obtain the mean fluorescence intensity (MFI); for sorting, cells were received in 96 well plates with medium, one cell per well to establish a cell line.
Studies above have shown that CLN3^Δex7/8 human neurons feature lysosomal acidity dysregulation. To investigate the effect of Compound G on lysosomal acidity in CLN3^Δex7/8 neurons, Lysotracker dye was used for staining and flow cytometry was used for analyzing the fluorescence intensity of Lysotracker dye in cells.

The subject of the next assay is SCMAS protein. Nature of the assay: SCMAS protein storage in neurons (immunofluorescence staining and western blot). The class given is cell-based, human. The conditions noted are these: CLN3^Δex7/8 neurons. Here is the method:
Sample preparation: for adherent cultured cells, exemplified by cells cultured in a six-well cell plate, the cell medium was aspirated and the cells were washed once with dPBS. About 100 μL of RIPA lysate (50 mM Tris-HCl, pH 7.5, 150 mM NaCl, 0.25% Na-deoxycholate, 0.1% NP-40, 0.1% Triton X-100) containing protease inhibitors and phosphatase inhibitors was added to each well. The cell lysate was scraped off completely with a cell scraper and collected into 1.5 mL EP tubes. Lysis was continued for 30 minutes on ice. For animal tissue, the weight of the animal tissue was weighed, and RIPA lysate containing protease inhibitors and phosphatase inhibitors was added with five times the volume of the animal tissue. The tissue was grinded on ice with a tissue grinder until there is no obvious tissue mass, collected into 1.5 mL EP tubes, and placed on ice for further lysis for 30 min. […]

Another assay relates to NRK cells. The assay can be described thus: Lysotracker staining of NRK cells, flow cytometry. The format is cell-based, rat. The text has this: The impact of increased p62 protein levels on the cellular lysosomal functions was detected: GFP-p62 proteins and GFP proteins of the control group were overexpressed in NRK cells, and Lysotracker dye was used to detect the acidity of lysosomes in GFP-positive cells.

In assay [2] the test system is BFP-LC3 stably expressing NRK cells. Nature of the assay: Lysotracker staining of BFP-LC3 stably expressing NRK cells. The class given is cell-based, rat. The note with it: treatment for 18 hours, compared with control cells. Here is the method: Moreover, after treating BFP-LC3 stably expressing NRK cells with these seven small molecule compounds for 18 hours, staining with Lysotracker dye was performed.

Structures can show the parent of a compound that is named as a salt.

With `COC(=O)/C=C/C(=O)OC` [DMF, dimethyl fumarate, reference compound], the “Lysotracker fluorescence intensity in CLN3^Δex7/8 human neurons” value in assay [1] is listed as “significantly increased”. In addition, in the assay with SCMAS protein, the “abnormal storage of SCMAS protein” value is given as “significantly reduced”. For the same molecule, the “intracellular lysosomal acidity (Lysotracker)” value in the assay with NRK cells is “significantly increase the intracellular lysosomal acidity”.
As to `CO/C1=C\C(C)=C\[C@@H](C)[C@@H](O)[C@@H](C)C/C(C)=C/C=C/[C@H](OC)[C@@H]([C@@H](C)[C@@H](O)[C@H](C)[C@@]2(O)C[C@@H](O)[C@H](C)[C@@H](C(C)C)O2)OC1=O` [Baf-A1, bafilomycin A1], the “intracellular Lysotracker staining (lysosomal acidity)” value in assay [2] was “significant decrease in lysosomal acidity”.
